Source: ChEMBL document CHEMBL4706623, “GPR52 Antagonist Reduces Huntingtin Levels and Ameliorates Huntington's Disease-Related Phenotypes” (J Med Chem, 2021)
pIC50: −log10 of the molar value.

Target: G-protein coupled receptor 52 (Homo sapiens, UniProt Q9Y2T5)
Experiment: Antagonist activity at GPR52 (unknown origin) expressed in HEK293 cells assessed as inhibition of WO459-induced cAMP accumulation preincubated for 15 mins followed by WO459 addition and measured after 30 mins by LANCE Ultra cAMP kit based microplate reader analysis
Format: functional, cell-based
Conditions: for pIC50: read-out: IC50; call rule not given here

Sequence of G-protein coupled receptor 52 (Q9Y2T5 whole entry): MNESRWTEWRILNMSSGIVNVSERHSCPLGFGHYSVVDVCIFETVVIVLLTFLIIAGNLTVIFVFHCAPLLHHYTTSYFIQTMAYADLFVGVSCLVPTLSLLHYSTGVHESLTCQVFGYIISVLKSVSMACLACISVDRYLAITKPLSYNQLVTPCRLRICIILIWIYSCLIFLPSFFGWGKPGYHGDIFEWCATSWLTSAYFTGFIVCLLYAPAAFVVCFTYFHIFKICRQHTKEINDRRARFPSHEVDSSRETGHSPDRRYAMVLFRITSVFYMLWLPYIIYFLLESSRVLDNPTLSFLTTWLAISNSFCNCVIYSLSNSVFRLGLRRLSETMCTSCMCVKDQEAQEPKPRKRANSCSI

Row | pIC50 | IC50 (hek293) | Structure (SMILES)
1 | 5.59 | – | Cc1cccc(C(=O)/C=C/CCc2ccccc2)c1
2 | – | Not Active | O=C(/C=C/CCc1ccccc1)N1CCCCC1
3 | 5.63 | – | O=C(/C=C/CCc1ccccc1)c1cccc(F)c1
